target: PI3 K Alpha (Homo sapiens, UniProt P42336); experiment: PI3 kinase phosphorylation assays (homogenous solution phase, one step solid phase, ATP depletion/KinaseGlo); format: biochemical; settings: ATP depletion assay; read-out: PI3 K Alpha IC50
Method: Compounds to be tested are dissolved in DMSO and directly distributed into 384-well flashplates at 1.25 μL per well. To start the reaction, 20 μL of 6 nM PI3 kinase are added into each well followed by 20 μL of 400 nM ATP containing a trace of radiolabeled ATP and 900 nM 1-alpha-phosphatidylinositol (PI). The plates are briefly centrifuged to remove any air gap. The reaction is performed for 15 minutes and then stopped by the addition of 20 μL of 100 mM EDTA. The stopped reaction is incubated overnight at RT to allow the lipid substrate to bind by hydrophobic interaction to the surface of the flashplate. The liquid in the wells is then washed away, and the labeled substrate is detected with scintillation counting.
This method is similar to Assay 1 except that the lipid substrate (1-alpha-phosphatidylinositol (PI)) is first dissolved in a coating buffer and incubated on flashplate at room temperature overnight to allow the lipid substrate to bind by hydrophobic interaction to the surface of the flashplate. Unbound substrate is then washed away. On the day of assay, 20 μL of 6 nM PI3 kinase are added into each well followed by 20 μL of 400 nM ATP containing trace of radiolabeled ATP. Compounds are added together with enzyme and ATP to the lipid-coated plates. The plates are briefly centrifuged to remove any air gap. The reaction is performed for two to three hours. The reaction is stopped by addition of 20 μL of 100 mM EDTA or by immediate plate washing. Phosphorylated lipid substrate is detected by scintillation counting.
Compounds to be tested are dissolved in DMSO and directly distributed into a black 384-well plate at 1.25 μL per well. To start the reaction, 25 μL of 10 nM PI3 kinase and 5 μg/mL 1-alpha-phosphatidylinositol (PI) are added into each well followed by 25 μL of 2 μM ATP. The reaction is performed until approx 50% of the ATP is depleted, and then stopped by the addition of 25 μL of KinaseGlo solution. The stopped reaction is incubated for 5 minutes and the remaining ATP is then detected via luminescence.

Sequence of PI3 K Alpha (P42336 whole entry): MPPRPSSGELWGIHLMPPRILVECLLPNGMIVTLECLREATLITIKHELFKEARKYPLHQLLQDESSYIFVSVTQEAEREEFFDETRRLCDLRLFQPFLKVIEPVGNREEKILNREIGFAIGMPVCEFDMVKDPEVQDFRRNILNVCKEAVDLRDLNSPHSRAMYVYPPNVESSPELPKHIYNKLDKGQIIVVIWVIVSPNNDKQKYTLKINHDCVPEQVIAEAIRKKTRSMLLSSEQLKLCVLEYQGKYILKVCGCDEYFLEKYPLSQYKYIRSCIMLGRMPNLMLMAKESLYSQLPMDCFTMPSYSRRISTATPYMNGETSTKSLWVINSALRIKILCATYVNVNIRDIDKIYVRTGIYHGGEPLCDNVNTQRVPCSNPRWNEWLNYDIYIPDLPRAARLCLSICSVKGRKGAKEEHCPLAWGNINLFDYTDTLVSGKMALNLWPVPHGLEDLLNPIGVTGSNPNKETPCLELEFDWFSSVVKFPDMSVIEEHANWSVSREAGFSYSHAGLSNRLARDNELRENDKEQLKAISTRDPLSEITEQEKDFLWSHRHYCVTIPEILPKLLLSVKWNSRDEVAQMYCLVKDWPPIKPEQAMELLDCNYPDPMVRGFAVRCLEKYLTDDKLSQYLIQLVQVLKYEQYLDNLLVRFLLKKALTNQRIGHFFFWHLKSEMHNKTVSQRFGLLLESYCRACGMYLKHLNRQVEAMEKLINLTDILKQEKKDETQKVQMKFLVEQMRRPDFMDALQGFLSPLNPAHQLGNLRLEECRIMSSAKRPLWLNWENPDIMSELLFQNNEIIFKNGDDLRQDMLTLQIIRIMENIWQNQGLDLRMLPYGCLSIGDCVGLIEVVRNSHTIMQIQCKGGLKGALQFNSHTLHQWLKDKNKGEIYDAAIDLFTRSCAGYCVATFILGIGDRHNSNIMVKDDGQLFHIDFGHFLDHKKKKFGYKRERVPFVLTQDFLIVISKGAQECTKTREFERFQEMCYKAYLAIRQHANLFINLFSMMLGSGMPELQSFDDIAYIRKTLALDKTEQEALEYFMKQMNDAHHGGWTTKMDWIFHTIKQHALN
Sequence of PI3 K Alpha (P27986 whole entry partner): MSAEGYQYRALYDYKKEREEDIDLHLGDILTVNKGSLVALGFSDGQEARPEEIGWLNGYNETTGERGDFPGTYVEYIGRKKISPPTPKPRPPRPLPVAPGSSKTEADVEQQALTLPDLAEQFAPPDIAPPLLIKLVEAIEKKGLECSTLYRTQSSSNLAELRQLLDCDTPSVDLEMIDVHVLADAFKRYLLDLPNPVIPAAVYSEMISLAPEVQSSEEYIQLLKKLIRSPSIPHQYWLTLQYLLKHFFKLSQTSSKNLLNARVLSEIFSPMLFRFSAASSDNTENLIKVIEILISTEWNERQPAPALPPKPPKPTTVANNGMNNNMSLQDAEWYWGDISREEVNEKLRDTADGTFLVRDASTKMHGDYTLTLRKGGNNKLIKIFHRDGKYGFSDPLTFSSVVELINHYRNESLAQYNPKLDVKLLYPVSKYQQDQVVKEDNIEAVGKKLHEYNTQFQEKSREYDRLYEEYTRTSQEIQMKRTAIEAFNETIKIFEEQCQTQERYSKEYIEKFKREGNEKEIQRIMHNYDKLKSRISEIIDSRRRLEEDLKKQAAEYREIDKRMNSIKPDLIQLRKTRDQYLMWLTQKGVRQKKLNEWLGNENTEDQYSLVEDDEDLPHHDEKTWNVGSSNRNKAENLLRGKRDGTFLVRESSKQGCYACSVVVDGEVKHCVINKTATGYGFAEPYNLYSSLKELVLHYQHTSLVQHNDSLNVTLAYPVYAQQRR

IC50, < 1000 nM:
Nc1ccc(-c2ccc3nc(NC(=O)OCCN4CCCCC4)sc3c2)cn1 [Example 2-20, [6-(6-Amino-pyridin-3-yl)-benzothiazol-2-yl]-carbamic acid 2-piperidin-1-yl-ethyl ester]
CC(=O)Nc1nc2ccc(-c3ccc(NC4CCNCC4)nc3)cc2s1 [Example 2-19, N-{6-[6-(Piperidin-4-ylamino)-pyridin-3-yl]-benzothiazol-2-yl}-acetamide]
CC(=O)Nc1nc2ccc(-c3cnc(NC(C)=O)c(C(F)(F)F)c3)cc2s1 [Example 2-22, N-[6-(6-Acetylamino-5-trifluoromethyl-pyridin-3-yl)-bezothiazol-2-yl]-acetamide]

IC50, < 10000 nM:
Nc1cccc(C(=O)Nc2nc3ccc(-c4cnc(N)c(C(F)(F)F)c4)cc3s2)n1 [Example 2-35, 6-amino-N-(6-(6-amino-5-(trifluoromethyl)pyridin-3-yl)benzo[d]thiazol-2-yl)picolinamide]

same assay, conditions: read-out: PI3K Alpha IC50

IC50, > 25000 nM:
CC(=O)Nc1cn2cc(-c3cnc(N)c(C(F)(F)F)c3)cc(C)c2n1 [Example 34, N-(6-(6-amino-5-(trifluoromethyl)pyridin-3-yl)-8-methylimidazo[1,2-a]pyridin-2-yl)acetamide]
CC(=O)Nc1cn2c(-c3cnc(N)c(C(F)(F)F)c3)c(-c3cnc(N)c(C(F)(F)F)c3)ccc2n1 [Example 35, N-(5,6-bis(6-amino-5-(trifluoromethyl)pyridin-3-yl)imidazo[1,2-a]pyridin-2-yl)acetamide]

IC50, < 10000 nM:
CC(=O)N1CCCC[C@@H]1C(=O)Nc1cn2cc(-c3cnc(N)c(C(F)(F)F)c3)ccc2n1 [Example 47, (R)-1-acetyl-N-(6-(6-amino-5-(trifluoromethyl)pyridin-3-yl)imidazo[1,2-a]pyridin-2-yl)piperidine-2-carboxamide]
CC(=O)Nc1nc2ccc(-c3cnc(N)c(C(F)(F)F)c3)cn2c1C(C)=O [Example 20, N-[3-Acetyl-6-(6-amino-5-trifluoromethyl-pyridin-3-yl)-imidazo[1,2-a]pyridin-2-yl]-acetamide]
CCN(CC)CCCc1c(NC(C)=O)nc2ccc(-c3cnc(N)c(C(F)(F)F)c3)cn12 [Example 17, N-[6-(6-Amino-5-trifluoromethyl-pyridin-3-yl)-3-(3-diethylamino-propyl)-imidazo[1,2-a]pyridin-2-yl]-acetamide]
Nc1ncc(-c2ccc3nc(NC(=O)N4CCC[C@H]4C(=O)O)cn3c2)cc1C(F)(F)F [Example 49, (S)-1-(6-(6-amino-5-(trifluoromethyl)pyridin-3-yl)imidazo[1,2-a]pyridin-2-ylcarbamoyl) pyrrolidine-2-carboxylic acid]
Nc1ncc(-c2ccc3nc(NC(=O)c4ccccc4C(=O)O)cn3c2)cc1C(F)(F)F [Example 50, 2-(6-(6-amino-5-(trifluoromethyl)pyridin-3-yl)imidazo[1,2-a]pyridin-2-ylcarbamoyl) benzoic acid]
CC(=O)Nc1cn2cc(-c3cnc(N)nc3N)ccc2n1 [Example 48, N-(6-(2,4-diaminopyrimidin-5-yl)imidazo[1,2-a]pyridin-2-yl)acetamide]
CC(=O)Nc1cn2cc(-c3cnc(N)cc3C(F)(F)F)ccc2n1 [Example 22, N-[6-(6-Amino-4-trifluoromethyl-pyridin-3-yl)-imidazo[1,2-a]pyridin-2-yl]-acetamide]
CC(=O)Nc1nc2ccc(-c3ccc(N)nc3)cn2c1Br [Example 14, N-[6-(6-Amino-pyridin-3-yl)-3-bromo-imidazo[1,2-a]pyridin-2-yl]-acetamide]

IC50, < 1000 nM:
CC(=O)Nc1cn2cc(-c3cnc(N)c(S(=O)(=O)N4CCC(Oc5ccc(F)cc5)CC4)c3)ccc2n1 [Example 267, N-(6-(6-amino-5-(4-(4-fluorophenoxy)piperidin-1-ylsulfonyl)pyridin-3-yl)imidazo[1,2-a]pyridin-2-yl)acetamide]
CC(=O)Nc1cn2nc(-c3cnc(N)c(-c4ccccc4Cl)c3)ccc2n1 [Example 260, N-(6-(6-amino-5-(2-chlorophenyl)pyridin-3-yl)imidazo[1,2-b]pyridazin-2-yl)acetamide]
Nc1ncc(-c2ccc3nc(NC(=O)C4CCC(=O)N4)cn3c2)cc1C(F)(F)F (centres unmarked) [Example 262, N-(6-(6-amino-5-(trifluoromethyl)pyridin-3-yl)imidazo[1,2-a]pyridin-2-yl)-5-oxopyrrolidine-2-carboxamide]
Nc1ncc(-c2ccc3nc(NC(=O)C4CCC(=O)NC4)cn3c2)cc1C(F)(F)F (centres unmarked) [Example 270, N-(6-(6-amino-5-(trifluoromethyl)pyridin-3-yl)imidazo[1,2-a]pyridin-2-yl)-6-oxopiperidine-3-carboxamide]
Nc1ncc(-c2ccc3nc(NC(=O)[C@@H]4CCC(=O)O4)cn3c2)cc1C(F)(F)F [Example 268]
Nc1ncc(-c2ccc3nc(NC(=O)N4CCCC4Cc4ccccn4)cn3c2)cc1C(F)(F)F (centres unmarked) [Example 273, N-(6-(6-amino-5-(trifluoromethyl)pyridin-3-yl)imidazo[1,2-a]pyridin-2-yl)-2-(pyridin-2-ylmethyl) pyrrolidine-1-carboxamide]
CC(=O)Nc1cn2cc(-c3cnc(N)c(O[C@H](C)C(F)(F)F)n3)cc(F)c2n1 [Example 265, (R)-N-(6-(5-amino-6-(1,1,1-trifluoropropan-2-yloxy)pyrazin-2-yl)-8-fluoroimidazo [1,2-a]pyridin-2-yl)acetamide]
Nc1ncc(-c2ccc3nc(NC(=O)C4CCCC(=O)N4)cn3c2)cc1C(F)(F)F (centres unmarked) [Example 266, N-(6-(6-amino-5-(trifluoromethyl)pyridin-3-yl)imidazo[1,2-a]pyridin-2-yl)-6-oxo-piperidine-2-carboxamide]
COc1ccc(C2CCCN2C(=O)Nc2cn3cc(-c4cnc(N)c(C(F)(F)F)c4)ccc3n2)cc1OC (centres unmarked) [Example 276, N-(6-(6-amino-5-(trifluoromethyl)pyridin-3-yl)imidazo[1,2-a]pyridin-2-yl)-2-(3,4-dimethoxyphenyl) pyrrolidine-1-carboxamide]
Nc1ncc(-c2ccc3nc(NC(=O)c4cccc(-c5nn[nH]n5)c4)cn3c2)cc1C(F)(F)F [Example 269, N-(6-(6-amino-5-(trifluoromethyl)pyridin-3-yl)imidazo[1,2-a]pyridin-2-yl)-3-(2H-tetrazol-5-yl)benzamide]
Nc1ncc(-c2ccc3nc(NC(=O)N4CCCC4c4ccco4)cn3c2)cc1C(F)(F)F (centres unmarked) [Example 274, N-(6-(6-amino-5-(trifluoromethyl)pyridin-3-yl)imidazo[1,2-a]pyridin-2-yl)-2-(furan-2-yl)pyrrolidine-1-carboxamide]
Nc1ncc(-c2ccc3nc(NC(=O)[C@H]4CCC(=O)O4)cn3c2)cc1C(F)(F)F [Example 264, (R)-N-(6-(6-amino-5-(trifluoromethyl)pyridin-3-yl)imidazo[1,2-a]pyridin-2-yl)-5-oxotetrahydro furan-2-carboxamide]
COc1ccccc1C1CCCN1C(=O)Nc1cn2cc(-c3cnc(N)c(C(F)(F)F)c3)ccc2n1 (centres unmarked) [Example 277, N-(6-(6-amino-5-(trifluoromethyl)pyridin-3-yl)imidazo[1,2-a]pyridin-2-yl)-2-(2-methoxyphenyl) pyrrolidine-1-carboxamide]
N#C/N=C(\N)NCCCC(=O)Nc1cn2nc(-c3cnc(N)c(C(F)(F)F)c3)ccc2n1 [Example 258, (E)-N-(6-(6-amino-5-(trifluoromethyl)pyridin-3-yl)imidazo[1,2-b]pyridazin-2-yl)-4-(2-cyanoguanidino) butanamide]
Nc1ncc(-c2ccc3nc(NC(=O)[C@@H](O)CCC(=O)O)cn3c2)cc1C(F)(F)F [Example 272, (S)-5-(6-(6-amino-5-(trifluoromethyl)pyridin-3-yl)imidazo[1,2-a]pyridin-2-ylamino)-4-hydroxy-5-oxopentanoic acid]
CC(=O)Nc1cn2cc(-c3cnc(N)c(O[C@@H](C)C(F)(F)F)n3)cc(F)c2n1 [Example 259, (S)-N-(6-(5-amino-6-(1,1,1-trifluoropropan-2-yloxy)pyrazin-2-yl)-8-fluoroimidazo [1,2-a]pyridin-2-yl)acetamide]
Nc1ncc(-c2ccc3nc(NC(=O)N4CCCC4c4nccs4)cn3c2)cc1C(F)(F)F (centres unmarked) [Example 275, N-(6-(6-amino-5-(trifluoromethyl)pyridin-3-yl)imidazo[1,2-a]pyridin-2-yl)-2-(thiazol-2-yl)pyrrolidine-1-carboxamide]
CC(=O)Nc1cn2cc(-c3cnc(N)c(OC(F)F)c3)ccc2n1 [Example 263, N-(6-(6-amino-5-(difluoromethoxy)pyridin-3-yl)imidazo[1,2-a]pyridin-2-yl)acetamide]

From US20100075965A1, “PI3 KINASE INHIBITORS AND METHODS OF THEIR USE” (Novartis AG, priority 2006, published 2010)
